In PubChem BioAssay AID720587 (Broad Institute, 2013):
Values joined by “and” are separate entries in the source; they are usually repeats but may differ in a detail not shown here. Equal entries are not always repeated.

What follows are compounds tested on A673 Ewing sarcoma viability, CellTiter-Glo ATP luminescence, 72 h (assay: A673 Ewing sarcoma viability loss – cell-based, CellTiter-Glo luminescence, cherry-pick retest, confirmation (AID 720587)).

Row | SMILES | AC35
1 | CC(C)(C)[S@](=O)N1Cc2cc(C(=O)NCC(F)(F)F)nc(-c3cccc(-c4cccc(F)c4)c3)c2[C@@H]1CCO | 14.3 µM
2 | Cc1c(Cl)cccc1NC(=O)CCC(=O)N/N=C/c1ccc[nH]1 | 6.52 µM
3 | O=C(c1cccc(S(=O)(=O)NCc2ccccc2)c1)N1CCN(c2ccccc2)CC1 | 20.8 µM
4 | COc1ccc(C=C2CCc3ccccc3C2=O)cc1 | 18.9 µM
5 | COC(=O)C[C@@H]1CC[C@@H]2[C@H](COc3ccc(NC(=O)c4ccc(C(F)(F)F)cc4)cc3C(=O)N2C)O1 | 10.5 µM
6 | CCCN1C(=O)/C(=C/c2nc3ccccc3c(=O)[nH]2)c2ccccc21 | 22 µM
7 | O=C(NC[C@@H]1N[C@@H](CO)[C@H]1c1ccc(C2=CCCCC2)cc1)c1cccc(F)c1 | 11.1 µM
8 | C[C@]12CC[C@H](O)C[C@H]1CC[C@@H]1[C@@H]2C[C@@H](O)[C@]2(C)[C@@H](C3=CC(=O)OC3)CC[C@]12O | 1.1 µM
9 | COc1ccc(C2=Nn3c(nnc3-c3ccccc3OC)SC2)cc1OCC1CC1 | 4.88 µM
10 | C[C@H](CO)N1C[C@H](C)[C@H](CN(C)Cc2ccc(Oc3ccccc3)cc2)Oc2ccc(NC(=O)CCCCCC(=O)Nc3ccccc3N)cc2CC1=O | 4.84 µM
11 | COc1cc(/C=N\Nc2nc(-c3ccc(C)cc3)c(NC(C)=O)s2)ccc1O | 14.4 µM
12 | COc1cc(-c2noc(C)c2C#Cc2nccn2C)cc(OC)c1OC | 15.9 µM
13 | COC(=O)C1=C(C)N(Cc2cccc(C(F)(F)F)c2)C(=NCc2ccc(OC)cc2)NC1c1cccc(F)c1 (configuration not stated) | 4.46 µM
14 | CC1=NN(c2ccc(C)cc2)C(=O)/C1=C\C=C\c1ccccc1 | 7.95 µM
15 | COc1ccc(-c2nc3c(s2)CCc2onc(-c4ccc(OC)cc4)c2-3)cc1 | 8 µM
16 | CC(C)N1C/C(=C/c2ccsc2)C(=O)/C(=C/c2ccsc2)C1 | 5.27 µM
17 | O=C(Nc1cccc(S(=O)(=O)N2CCCC2)c1)c1ccc(Cl)nc1 | 6.28 µM
18 | CN(c1ccc(NC(=O)CCc2c[nH]c3ccccc23)cc1)c1ccccn1 | 9.08 µM
19 | CCCCCCN(C(=O)CCCCCN1C(=O)NC(c2ccc(Cl)cc2)C(C(=O)OCc2ccccc2)=C1C)C(C(=O)NCCCC)c1ccc(OCC(=O)OC)c(C(=O)OC)c1 (configuration not stated) | 10.8 µM
20 | Nc1nc(=S)c2ncn([C@@H]3O[C@H](CO)[C@@H](O)[C@H]3O)c2[nH]1 | 1.53 µM
21 | C[C@@H]1CN([C@@H](C)CO)C(=O)c2cccc(N(C)C)c2O[C@@H]1CN(C)Cc1ccc(C(=O)Nc2ccccc2N)cc1 | 13.8 µM

Row | SMILES | AC35
22 | CC(=O)Oc1ccc(-c2ccc(C(=O)Nc3cccc(S(=O)(=O)N4CCOCC4)c3)cc2)cc1 | 15.3 µM
23 | C[C@@H]1CN([C@@H](C)CO)C(=O)c2cccc(NC(=O)CCCCCC(=O)Nc3ccccc3N)c2O[C@@H]1CN(C)Cc1ccc(Oc2ccccc2)cc1 | 14.8 µM
24 | O=c1[nH]c(=O)n(C2C[C@H](O)[C@@H](CO)O2)cc1C(F)(F)F (some centres not stated) | 3.17 µM
25 | C[C@@H]1CN([C@@H](C)CO)S(=O)(=O)c2ccc(C#Cc3ccncc3)cc2O[C@H]1CN(C)S(=O)(=O)c1ccccc1 | 12.4 µM
26 | C[C@@H]1O[C@@H](O[C@@H]2C=C3CCC4C(CC[C@]5(C)[C@@H](c6ccc(=O)oc6)CC[C@]45O)[C@@]3(C)CC2)[C@H](O)[C@H](O)[C@H]1O (some centres not stated) | 0.0136 µM
27 | C[C@H](O)C#Cc1ccc2c(c1)O[C@@H](CN(C)Cc1ccc(-c3ccccc3)cc1)[C@H](C)CN([C@@H](C)CO)S2(=O)=O | 5.46 µM and 7.12 µM
28 | Cc1cccc(/C=C(\c2nc3ccccc3[nH]2)S(=O)(=O)c2ccccc2)c1 | 5.92 µM
29 | CCCCc1c(Cc2ccccc2)ncn1CCc1ccccc1OC | 15 µM
30 | C[C@@H]1CN([C@H](C)CO)C(=O)c2cccc(N(C)C)c2O[C@@H]1CN(C)Cc1ccc(C(=O)Nc2ccccc2N)cc1 | 19.6 µM
31 | C[C@H]1CN([C@@H](C)CO)C(=O)c2cccc(NC(=O)CCCCCC(=O)Nc3ccccc3N)c2O[C@@H]1CN(C)Cc1ccc2c(c1)OCO2 | 23.6 µM
32 | C[C@H]1CN([C@@H](C)CO)C(=O)Cc2cc(NC(=O)CCCCCC(=O)Nc3ccccc3N)ccc2O[C@H]1CN(C)Cc1ccc(Cl)c(Cl)c1 | 10.2 µM
33 | Cc1ccc(S(=O)(=O)Nc2ccc3c(c2)C(=O)N([C@@H](C)CO)C[C@@H](C)[C@H](CN(C)Cc2ccc(C(F)(F)F)cc2)OCCCC[C@H](C)O3)cc1 | 12.1 µM
34 | CN1c2ccc(-c3ccc(C#N)cc3)cc2[C@H]2[C@H](CCN2S(=O)(=O)c2cccc(F)c2)[C@@H]1CO | 4.45 µM
35 | C[C@@H]1CN([C@@H](C)CO)C(=O)c2cccc(NS(=O)(=O)c3ccc(F)cc3)c2O[C@@H]1CN(C)Cc1ccc(C(=O)Nc2ccccc2N)cc1 | 8.41 µM
36 | Cc1nn(-c2ccc(F)cc2)c2nc(N)c(C#N)c(-c3ccc(O)c(O)c3)c12 | 8.63 µM
37 | O=c1c2ccccc2nc(/C=C/c2cc(Br)ccc2O)n1CCCO | 9.12 µM
38 | O=c1[nH]c(/C=C2\C=Nc3ccccc32)c(O)n1Cc1ccccc1F | 3.16 µM
39 | COc1ccc(C2=Nn3c([n+](C)c4ccccc43)SC2)cc1 | 20.2 µM
40 | N#CC(=C1C=CC(=NO)C(Cl)=C1)c1ccccc1 | 5.59 µM
41 | CCCCC[C@H](C)N1C[C@H](COCc2ccccc2)Oc2cc(N3CC[C@@H](N(C)C)C3)ccc2S1(=O)=O | 11.7 µM
42 | CCN1/C(=C/C=C/c2oc3ccc(-c4ccccc4)cc3[n+]2CC)Oc2ccc(-c3ccccc3)cc21 | 1.98 µM
